Results: patent US20160296529A1, “AMINOTRIAZOLOPYRIDINE FOR USE IN THE TREATMENT OF INFLAMMATION, AND PHARMACEUTICAL COMPOSITIONS THEREOF” (priority 2012, published 2016)

Assays:
[1] = Single dose pharmacokinetics in animals, mouse; type: in vivo, CD1 mice; details: for AUC: read-out: exposure (expressed as AUC)
Protocol: (§1) Pharmacokinetic studies were performed in various animal species dosed with the compound according to Formula II to determine the exposure to the compound according to Formula I as well as its apparent terminal half life (T1/2), when possible.
Sprague-Dawley rats (male, 200-250 g), CD1 mice (male, 25-30 g), Beagle dogs (male, 9-10 kg), Göttingen minipigs (male, 10-15 kg) and New Zealand White rabbits (male, 3-5 kg) were acclimatized for at least 7 days before treatment and were kept on a 12 hr light/dark cycle (07 h00-19 h00).
Temperature was maintained at approximately 22° C., and food and water were provided ad libitum.
The compound according to Formula II was formulated in 0.5% methylcellulose and dosed orally to 3 animals (or 3 mouse/time points) as a single esophageal gavage at dose ranging from 15 to 45 mg/kg under a dosing volume of 5 or 10 mL/kg.
(§2) Blood samples were collected over a 24-h period via the jugular vein (dog, minipig), ear blood vessel (rabbit), cardiac puncture (mouse) or retro-orbital sinus (rat) with lithium heparin as anti-coagulant. Whole blood samples were centrifuged and the resulting plasma samples were stored at −20° C. pending analysis.
(§3) Plasma concentrations of the compound according to Formula I and of the compound according to Formula II were determined by an LC-MS/MS method with a limit of quantification ≦10.0 ng/mL for both Formula I and Formula II for all species.
(§4) Pharmacokinetic parameters were calculated using a statistical analysis package (WinNonLin (Pharsight, Sunnyvale, Calif.: CA 94086, USA).

hepatocytes of human = assay: In vitro metabolism study in hepatocytes, human; type: in vitro ADME; details: human hepatocyte suspension, 24 h incubation of 100 μM [14C]-Formula II
Protocol: (§5) Hepatocyte stability (Concentrations of the compound according to Formula II and its main metabolites (as % of total radioactivity) after 24 h incubation of 100 μM [^14C]-Compound according to Formula II in hepatocyte suspension of different species)

hepatocytes of rat = assay: In vitro metabolism study in hepatocytes, rat; type: in vitro ADME; details: rat hepatocyte suspension, 24 h incubation of 100 μM [14C]-Formula II
Protocol: as §5

[2] = Single dose pharmacokinetics in human; type: in vivo; details: for half-life: oral, human plasma, single dose (10-200 mg) of Formula II as capsules, read-out: mean apparent terminal elimination half-life; for AUC: plasma, po, capsules, read-out: exposure (expressed as AUC); for AUC / Ratio I/II of exposure (AUC Formula I : AUC Formula II): human
Protocol: Serial blood samples were collected over 72 h to determine plasma concentrations of the compounds according to Formula II and Formula I using a validated liquid chromatography-mass spectrometry/mass spectrometry (LC-MS/MS) method with a limit of quantification of 1.00 ng/mL. PK parameters were assessed using a statistical analysis package (WinNonLin (Pharsight, Sunnyvale, Calif.: CA 94086, USA).
(§6) Mean plasma concentration-time profiles of the compound according to Formula II and the compound according to Formula I were measured.
In order to show the comparative exposures of the two compounds, the AUC of the compounds according to Formula I and the compound according to Formula II were calculated. The AUC value represents the total exposure of the compound in the species after dosing. These values were then expressed as a ratio of AUC of the compound according to Formula I: AUC of the compound according to Formula II in FIG. 4. From this ratio it can clearly be seen that there was a significant difference in exposure to a compound according to Formula I after administration of a compound according to Formula II in human compared to the exposure seen in animals for therapeutically equivalent doses. Without wanting to be bound by theory, it was believed that this difference was related to the difference in the apparent terminal half-life in the different species.

[3] = Single dose pharmacokinetics in animals, rabbit; type: in vivo, New Zealand White rabbits
Protocol: as §1
Sprague-Dawley rats (male, 200-250 g), CD1 mice (male, 25-30 g), Beagle dogs (male, 9-10 kg), Göttingen minipigs (male, […]) were acclimatized for at least 7 days before treatment and were kept on a 12 hr light/dark cycle (07 h00-19 h00).
Temperature was maintained at approximately 22° C., and food and water were provided ad libitum. […]
as §2, §3, §4

[4] = Repeated dose pharmacokinetics in human; type: in vivo; details: for half-life at 10 days: oral, human plasma, repeated dose of Formula II (25-100 mg BID or 200-450 mg QD) for 10 days, read-out: mean apparent terminal elimination half-life; for AUC: plasma, po, read-out: Exposure (expressed as AUC); for AUC / Ratio I/II (AUC Formula I : AUC Formula II): human, steady state
Protocol: Subjects received repeated dose (25, 50 and 100 mg BID or 200, 300 and 450 mg QD) of the compound according to Formula II as capsules after a standard breakfast for 10 days.
Serial blood samples were collected over 12 h (BID regimen) or 24 h (QD regimen) on day 1 and 10 to determine plasma concentrations of the compounds according to Formula II and Formula I using a validated liquid chromatography-mass spectrometry/mass spectrometry (LC-MS/MS) method with a limit of quantification of 1.00 ng/mL for both Formula. PK parameters were assessed using a statistical analysis package (WinNonLin (Pharsight, Sunnyvale, Calif.: CA 94086, USA).
as §6
In order to show the comparative exposures of the two compounds, the AUC of the compounds according to Formula I and the compound according to Formula II were calculated. The AUC value represents the steady state exposure of the compounds after repeated dosing. The ratio of AUC of the compound according to Formula I:AUC of the compound according to Formula II is display in Table VII.

hepatocytes of dog = assay: In vitro metabolism study in hepatocytes, dog; type: in vitro ADME; details: dog hepatocyte suspension, 24 h incubation of 100 μM [14C]-Formula II
Protocol: as §5

[5] = male, CD1, plasma, after Formula II 30 mg/kg oral
[6] = after Formula II 10 mg single dose
[7] = after Formula II 25 mg single dose
[8] = after Formula II 50 mg single dose
[9] = after Formula II 100 mg single dose
[10] = after Formula II 200 mg single dose
[11] = male, New Zealand White, plasma, after Formula II 20 mg/kg oral, read-out: exposure (expressed as AUC)

SMILES	AUC [1, 5]	In vitro metabolic profile of Formula II (as % of total radioactivity) (hepatocytes of human)	In vitro metabolic profile of Formula II (as % of total radioactivity) (hepatocytes of rat)	half-life [2]	AUC [2, 6]	AUC [2, 7]	AUC [2, 8]	AUC [2, 9]	AUC [2, 10]	AUC [3, 11]	half-life at 10 days [4]	AUC ([4]; Formula II 25 mg BID)	AUC ([4]; Formula II 50 mg BID)	AUC ([4]; Formula II 100 mg BID)	AUC ([4]; Formula II 200 mg QD)	AUC ([4]; Formula II 300 mg QD)	AUC ([4]; Formula II 450 mg QD)	In vitro metabolic profile of Formula II (as % of total radioactivity) (hepatocytes of dog)	further results
O=C(Nc1nc2cccc(-c3ccc(CN4CCS(=O)(=O)CC4)cc3)n2n1)C1CC1 [Formula II, Cyclopropanecarboxylic acid {5-[4-(1,1-dioxo-thiomorpholin-4-ylmethyl)-phenyl]-[1,2,4]triazolo[1,5-a]pyridin-2-yl}-amide]	7.3 µg·h/mL	at least 80%	at least 80%	5 to 8 h	0.128 µg·h/mL	0.331 µg·h/mL	0.735 µg·h/mL	1.69 µg·h/mL	4.5 µg·h/mL	26 µg·h/mL	4 to 11 h	0.346 µg·h/mL	0.758 µg·h/mL	2.38 µg·h/mL	4.45 µg·h/mL	4.4 µg·h/mL	10.2 µg·h/mL	at least 80%	In vitro metabolic profile of Formula II (as % of total radioactivity) (hepatocytes of human; listed as drawing 10): 88%; In vitro metabolic profile of Formula II (as % of total radioactivity) (hepatocytes of rat; listed as drawing 10): 86%; In vitro metabolic profile of Formula II (as % of total radioactivity) (hepatocytes of dog; listed as drawing 10): 93%
Nc1nc2cccc(-c3ccc(CN4CCS(=O)(=O)CC4)cc3)n2n1 [Formula I, 5-[4-(1,1-Dioxothiomorpholin-4-ylmethyl)-phenyl]-[1,2,4]triazolo[1,5-a]pyridin-2-ylamine]	11.4 µg·h/mL	11%	12%	21 to 27 h	2.89 µg·h/mL	7.22 µg·h/mL	14.6 µg·h/mL	26.9 µg·h/mL	57.6 µg·h/mL	10 µg·h/mL	22 to 27 h	8.66 µg·h/mL	15.2 µg·h/mL	41.1 µg·h/mL	70 µg·h/mL	66.1 µg·h/mL	102 µg·h/mL	5.7%	Ratio I/II of exposure (AUC Formula I : AUC Formula II) ([1]; after Formula II 30 mg/kg oral): 1.56; half-life ([1]; male, CD1, plasma, oral, upon administration of Formula II, read-out: apparent terminal elimination half-life (converted)): 2.1 h; In vitro metabolic profile of Formula II (as % of total radioactivity) (hepatocytes of human; listed as drawing 11): 11.2%; apparent terminal half life in human relative to the other animal species ([2]; human vs other animal species, in vivo): at least 3 fold; Ratio I/II of exposure (AUC Formula I : AUC Formula II) [2, 6]: 22.58; Ratio I/II of exposure (AUC Formula I : AUC Formula II) [2, 7]: 21.81; Ratio I/II of exposure (AUC Formula I : AUC Formula II) [2, 8]: 19.86; Ratio I/II of exposure (AUC Formula I : AUC Formula II) [2, 9]: 15.92; Ratio I/II of exposure (AUC Formula I : AUC Formula II) [2, 10]: 12.8; AUC ([3]; New Zealand White, plasma, female, Formula I 125 mg/kg single oral dose, read-out: AUC): 777 µg·h/mL; AUC ([3]; New Zealand White, plasma, female, Formula I 250 mg/kg single oral dose, read-out: AUC): 1030 µg·h/mL; Ratio I/II of exposure (AUC Formula I : AUC Formula II) ([3]; after Formula II 20 mg/kg oral): 0.38; half-life ([3]; male, New Zealand White, plasma, oral, upon administration of Formula II, read-out: apparent terminal elimination half-life (converted)): 4.6 h; Ratio I/II (AUC Formula I : AUC Formula II) ([4]; Formula II 25 mg BID): 24.4; Ratio I/II (AUC Formula I : AUC Formula II) ([4]; Formula II 50 mg BID): 20.5; Ratio I/II (AUC Formula I : AUC Formula II) ([4]; Formula II 100 mg BID): 18.3; Ratio I/II (AUC Formula I : AUC Formula II) ([4]; Formula II 200 mg QD): 16.1; Ratio I/II (AUC Formula I : AUC Formula II) ([4]; Formula II 300 mg QD): 15.0; Ratio I/II (AUC Formula I : AUC Formula II) ([4]; Formula II 450 mg QD): 10.1
